Measurements from US20240246941A1, “SUBSTITUTED 4-(3-AMINOPROP-1-YL)AMINOQUINOLINE ANALOGS AS MODULATORS OF MELANOMA-ASSOCIATED ANTIGEN 11 UBIQUITIN LIGASE” (ST. JUDE CHILDREN'S RESEARCH HOSPITAL, INC., priority 2020, published 2024).

Each compound was assayed against MAGE-A11:PCF11 (Homo sapiens (Human), UniProt P43364) (assay: TR-FRET single point screening at 15 μM). Conditions: single point TR-FRET screening at 15 μM against MAGE-A11:PCF11.
Sequence of MAGE-A11:PCF11 (P43364 218-429): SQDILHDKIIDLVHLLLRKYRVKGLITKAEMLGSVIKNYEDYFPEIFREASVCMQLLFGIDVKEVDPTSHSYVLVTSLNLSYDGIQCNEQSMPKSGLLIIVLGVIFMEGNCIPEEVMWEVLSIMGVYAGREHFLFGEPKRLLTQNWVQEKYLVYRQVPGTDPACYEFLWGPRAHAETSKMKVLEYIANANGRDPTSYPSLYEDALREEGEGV
Assay type: binding
Parameters: unit not given here
Description: TR-FRET Assays and High-throughput Screen. Terbium-anti-GST antibody, 1 M Tris pH 7.5 1 M MgCl2 and 1 M DTT were purchased from Invitrogen (Carlsbad, CA), BSA was purchased from Sigma (St. Louis, MO). Dimethyl sulfoxide (DMSO) was purchased from Fisher Scientific (Pittsburgh, PA). Black 384-well low volume plates and 384-well polypropylene compound plates were purchased from Corning Incorporated (Tewksbury, MA). The St. Jude FDA drug and Bioactive library (11,293 chemicals), Drug-like library (10,073 chemicals) and Lead-like library (10,041 chemicals) were custom assembled and purchased from commercial sources including Sigma, Microsource (Gaylordsville, CT), selleckchem (Houston, TX), ChemDiv (San Diego, CA), ChemBridge (San Diego, CA), Enamine (Monmouth Jct., NJ), and Life Chemicals (Niagara-on-the-Lake, ON, Canada). They were arrayed (10 mM in DMSO) in 384-well polypropylene compound plates with columns 1, 2, 13 and 14 empty which were reserved for controls.
The TR-FRET assay buffer with a formula of 50 mM Tris pH 7.5, 20 mM MgCl2, 0.1 mg/ml BSA and 1 mM DTT was freshly prepared before each experiment. All TR-FRET assays were performed in black 384-well plates with 20 μl/well assay volume in the TR-FRET assay buffer at room temperature (approximately 25° C.). All peptides or compounds were solubilized in DMSO. To test the competitive activity of peptides or compounds against the interaction between GST-MAGEA11 MHD and FAM-PCF11_4 peptide, 10 μl/well peptide or compound at specified concentration was dispensed into a black 384-well low volume plate, followed by 5 μl/well FAM-PCF11_4 (800 nM), 5 μl/well Tb-anti-GST (20 nM) and GST-MAGEA11 MHD (20 nM). The assay components in each well was then mixed by shaking the plate on an IKA MTS 2/4 digital microtiter plate shaker (IKA Works; Wilmington, NC, USA) at 900 RPM for 1 minute. The plate was further centrifuged in an Eppendorf 5810 centrifuge with an A-4-62 swing-bucket rotor (Eppendorf AG, Hamburg, Germany) at 201 g (1000 rpm) for 30 seconds. The plate was then incubated for 90 min with a lid to avoid light exposure to the assay components. After incubation, the fluorescent emission signals at 520 nm and 490 nm channels of individual wells were measured with a PHERAstar FS plate reader (BMG Labtech; Durham, NC, USA) by using a 340 nm excitation filter, 100 μs delay time, and 200 μs integration time. The TR-FRET fluorescence emission ratio (TR-FRET signal) for each well was presented as 10 000×520 nm/490 nm, which was used directly for curve fitting, or further converted to % Inhibition based on the respective positive and negative controls. The graphic software GraphPad Prism 4.81 (GraphPad Software; La Jolla, CA, USA) was used to generate curves and derive IC50 values of tested peptides or compounds, if applicable.
TR-FRET screen for identifying MAGEA11 small molecule inhibitors was performed as follows. The primary one-concentration screening and subsequent 10 or 20-concentration dose response tests were accomplished with an automated High Throughput Screening system (HighRes Biosolutions, Beverly, MA)^30. In the primary screening, 15 μl/well FAM-PCF11_4 (267 nM) was first dispensed with a Multidrop Combi Reagent Dispenser (Thermo Fisher Scientific, Waltham, MA) to black 384-well low volume assay plates. The plates were spun down with a Velocity11 VSpin microplate centrifuge (Agilent Technologies, Santa Clara, CA). 30 nl/well of 10 mM compound/DMSO solutions, or DMSO alone, were transferred from compound plates (the St. Jude FDA drug and bioactive library, Drug-like library and Lead-like library) or a control plate to the assay plates with a Pin Tool (V&P Scientific, San Diego, CA). The compounds were arrayed in columns 3 to 12 and columns 15 to 24 of compound plates. The controls were arrayed in columns 1, 2, 13 and 14 of a compound plate. […]
Compound CCN1CCN(c2c(S(=O)(=O)c3ccc(Cl)cc3)cnc3cc(OC)c(OC)cc23)CC1 [SJ000083970] has a TR-FRET signal of −6.809. Compound O=[N+]([O-])c1cccc(CN2CCC(Nc3ccnc4cc(Cl)ccc34)CC2)c1 [SJ000523095] has a TR-FRET signal of 0.8927. In the case of CCN1CCN(c2c(C(=O)c3ccc(C)cc3)cnc3ccc(OC)cc23)CC1 [SJ000247282], the TR-FRET signal is reported as 3.9. CCCN(CCCNc1c2ccc(Cl)cc2nc2ccc(OC)cc12)Cc1cn(C)c2ccccc12 [SJ000522964] showed a TR-FRET signal of −162.2. With CCOc1ccc2ncc(C(=O)c3ccc(OC)cc3)c(N3CCN(C)CC3)c2c1 [SJ000247277] the TR-FRET signal was −18.95. With COc1ccc(OC(F)(F)F)cc1CN(CCCCNc1ccnc2cc(Cl)ccc12)Cc1ccccc1 [SJ000520447] the TR-FRET signal was 26.66. With COc1ccc2ncc(S(=O)(=O)c3ccc(C)cc3)c(N3CCN(c4ccc(F)cc4)CC3)c2c1 [SJ000117059] the TR-FRET signal was −118.5. COc1ccc2nc3cc(Cl)ccc3c(NCCCNCc3cccc4c3OCO4)c2c1 [SJ000520991] gave a TR-FRET signal of −257.1. In the case of O=C(C[C@H]1CC[C@]2(CC1)OO[C@]1(O2)C2CC3CC(C2)CC1C3)NCCCCNc1ccnc2cc(Cl)ccc12 [SJ000578384], the TR-FRET signal is reported as 25.12. With CCc1ccc(S(=O)(=O)c2cnc3ccccc3c2N2CCN(C)CC2)cc1 [SJ000278939] the TR-FRET signal was 11.58. With CCCN(CCCNc1c2ccc(Cl)cc2nc2ccc(OC)cc12)Cc1nccs1 [SJ000522988] the TR-FRET signal was −117.5. Cc1ccc(S(=O)(=O)N2CCN(c3ccnc4cc(Cl)ccc34)CC2)cc1 [SJ000192519] was tested, and the TR-FRET signal was −38.7. CCCN(CCCNc1c2ccc(Cl)cc2nc2ccc(OC)cc12)Cc1ccccc1 [SJ000520925] showed a TR-FRET signal of −127.9. Work on COc1ccc2nc3cc(Cl)ccc3c(NCCCNCc3ccc4ccccc4c3)c2c1 [SJ000523038] yielded a TR-FRET signal of −109.5. COc1ccc2ncc(S(=O)(=O)c3ccc(C)c(C)c3)c(N3CCN(C)CC3)c2c1 [SJ000247333] was tested, and the TR-FRET signal was −8.554. Compound CCCN(CCCCNc1ccnc2cc(Cl)ccc12)CCCSC [SJ000311197] has a TR-FRET signal of 3.903. COc1ccc2nc3cc(Cl)ccc3c(NCCCNCc3ccc(F)cc3)c2c1 [SJ000523035] gave a TR-FRET signal of −398.2. In the case of CCCN(CCCNc1c2ccc(Cl)cc2nc2ccc(OC)cc12)Cc1cccc2c1OCO2 [SJ000522979], the TR-FRET signal is reported as −108. CCOC(=O)c1cnc2c(ccc3ccccc32)c1NCCN(C)C [SJ000019487] showed a TR-FRET signal of 6.418. For C=CCOCC(O)CN1CCN(c2cc(C(F)(F)F)nc3ccccc23)CC1 (centres unmarked) [SJ000228017], the TR-FRET signal was −2.128. COc1ccc2nc3cc(Cl)ccc3c(NCCCNCc3sccc3C)c2c1 [SJ000361094] showed a TR-FRET signal of −321.3.

Same assay, conditions: single point TR-FRET screening of quinoline compounds against MAGE-A11:PCF11; 15 μM
FC(F)(F)c1ccc2c(NCCCNCc3cc4ccccc4s3)ccnc2c1 [SJ000521060] showed a TR-FRET signal of 35.63. In the case of CCCN(CCCNc1ccnc2cc(C(F)(F)F)ccc12)Cc1cccc(C)c1 [SJ000523076], the TR-FRET signal is reported as 20.17. Cn1cccc1CNCCCNc1ccnc2cc(Cl)ccc12 [SJ000521019] showed a TR-FRET signal of 18.96. FC(F)(F)c1cccc(Cc2ccc3c(NCCCNCc4ccco4)ccnc3c2)c1 [SJ000311298] was tested, and the TR-FRET signal was 27.01. Compound O=[N+]([O-])c1ccccc1-c1ccc(CNCCCNc2ccnc3cc(Cl)ccc23)o1 [SJ000523068] has a TR-FRET signal of 21.65. With CCCN(CCCNc1ccnc2cc(Cl)ccc12)Cc1cc2ccccc2s1 [SJ000522993] the TR-FRET signal was 5.864. For COc1ccc(CN(CCCNc2ccnc3cc(Cl)ccc23)Cc2ccccc2)cc1 [SJ000522720], the TR-FRET signal was 11.78. With CCCNCCCNc1ccnc2cc(Cl)ccc12 [SJ000361119] the TR-FRET signal was 9.785. CCCN(CCCNc1ccnc2cc(C(F)(F)F)ccc12)CC(C)CC (centres unmarked) [SJ000523081] was tested, and the TR-FRET signal was 22.28. Clc1ccc2c(NCCCNCC3CC3)ccnc2c1 [SJ000361101] gave a TR-FRET signal of 11.47. With CCCN(CCCNc1c2ccc(Cl)cc2nc2ccc(OC)cc12)Cc1cc(OC)ccc1F [SJ000522965] the TR-FRET signal was −81.24.
